Read-outs that look alike come from different tables or passages of the source. Marks after values point to notes of the source that are not given here.
Legend:
[1] = system: C. albicans ATCC 90819(R); conditions: Table 1; strain D; control azoles; previously reported (refs 5, 16); cited from earlier work
[2] = system: Candida parapsilosis ATCC 22019; assay: MIC determination, strain J; type: cell-based; conditions: Lodderomyces parapsilosis
Procedure: (§1) The antifungal activity of our new azole compounds 1-9 and 24-41 was first evaluated against a panel of seven Candida albicans strains (A-G), three non-albicans Candida strains […], and three Aspergillus strains (K-M) in a concentration range of 0.03-31.2 μg/mL (Table 1). […] For all of our azole derivatives we report their MIC-0 values against C. albicans ATCC 10231 (strain A) and all Aspergillus strains (K-M), which correspond to complete growth inhibition of these fungi. […] The commercially available antifungals AmB, FLC, ITC, POS, and VOR were used as reference drugs for comparison. The MIC values presented for these five control drugs were either tested herein or correspond to our previously published data^5, 16 as indicated in Table 1.
(§2) Antifungal activity in the absence or presence of serum. The antifungal activity of the newly prepared alkylated piperazine/morpholine-azole hybrids 16-28, of intermediate 14 that we used to verify that only final compounds exert antifungal activity, as well as that of alkylated piperazine/morpholine derivatives 1-10 were first evaluated against a panel of seven C. albicans (ATCC 10231 (A), ATCC 64124(R) (B), ATCC MYA-2876(S) (C), ATCC 90819(R) (D), ATCC MYA-2310(S) (E), ATCC MYA-1237(R) (F), and ATCC MYA-1003(R) (G)), three non-albicans Candida (C. glabrata ATCC 2001 (H), C. krusei ATCC 6258 (I), and C. parapsilosis ATCC 22019 (J)), and three Aspergillus (A. flavus ATCC MYA-3631 (K), A. nidulans ATCC 38163 (L), and A. terreus ATCC MYA-3633 (M)) strains using a concentration range of 0.03-31.3 μg/mL (Table 2).
(§3) Commercially available antifungal agents such as AmB, CAS, FLC, and VOR were used as positive controls for comparison. […] It is important to note that all comparisons to follow will be done by using the MIC values reported in μg/mL as the data were collected that way. However, we also present in parentheses in Table 2 the corresponding values in micromolar.
(§4) We used the commercially available antifungal agents such as AmB, caspofungin (CAS), FLC, and VOR as positive controls for comparison. For derivatives 5-16 as well as the reference drugs AmB and CAS, we reported MIC-0 values, which correspond to no visible growth. […] In this manuscript, we performed all activity comparisons by using the MIC values reported in μg/mL (Note: the corresponding MIC values are also provided in μM into parentheses in Tables 1, 2, S1, and S2).

[3] = system: C. albicans ATCC 10231 (strain A); assay: Time-kill assay, strain A; type: cell-based, Candida albicans; conditions: Ex.2 series, compound at 4×MIC, VOR control
[4] = system: Candida krusei ATCC 6258; assay: MIC determination, strain I; type: cell-based; conditions: Pichia kudriavzevii, ATCC6258
Procedure: as §1, §2, §3, §4

[5] = system: ergosterol biosynthetic pathway (sterol 14α-demethylase) in C. albicans ATCC 10231 (strain A); assay: Sterol composition by GC-MS, strain A; type: cell-based, Candida albicans
From the text: FIG. 7A-FIG. 7H includes FIG. 7A. A simplified ergosterol biosynthetic pathway and products resulting from inhibition of ERG11. FIG. 7B-G. include GC-MS chromatograms of the sterols extracted from untreated and antifungals treated C. albicans strains. […] The peaks are for lanosterol (1), ergosterol (2), eburicol (3), 14-alpha-methyl ergosta 8,24(28)-dien-3-beta,6-alpha-diol (4), and unknown sterols (5 and 6). FIG. 7H is a table summarizing the percentage of each sterol from panels B-G.
FIG. 13A. A simplified ergosterol biosynthetic pathway and products resulting from inhibition of ERG11. FIG. 13B-FIG. 13F. GC-MS chromatograms of the sterols extracted from untreated and antifungal-treated C. albicans ATCC 10231 (strain A). […] The peaks in these chromatograms are for lanosterol (1), ergosterol (2), eburicol (3), 14α-methyl ergosta-8,24(28)-dien-3β,6α-diol (4), and three unknown sterols (5-7). FIG. 13G includes a table summarizing the percentage of each sterol from panels B-F.
No drug controls were also performed (FIGS. 7D and G).
Determination of sterol composition in c. albicans in the presence and absence of drugs. […] By using gas chromatography-mass spectrometry (GC-MS), we investigated the potential of the synthetic compounds to exert their antifungal activity by inhibiting the sterol 14α-demethylase enzyme of the ergosterol biosynthetic pathway (FIG. 13). […] A no drug control was also performed (FIG. 13A).
Since out of our compounds displaying antifungal activity only compound 8 caused membrane disruption of C. albicans ATCC 10231 (strain A) in the membrane permeabilization assay (section 2.6), we decided to explore by using gas chromatography-mass spectrometry (GC-MS) the effect of compounds 8 and 9 on sterol composition during ergosterol biosynthesis (the mechanism of action of other conventional azoles). […] We also used VOR at 0.12 μg/mL and no drug control for comparison.

[6] = system: C. albicans ATCC MYA-2310(S); assay: MIC determination, strain E; type: cell-based, Candida albicans; conditions: Candida albicans
Procedure: as §1, §2, §3, §4

[7] = system: C. albicans ATCC MYA-1003(R); assay: MIC determination, strain G; type: cell-based, Candida albicans; conditions: Candida albicans
From the text: For all of our azole derivatives we report their MIC-0 values against C. albicans ATCC 10231 (strain A) and all Aspergillus strains (K-M), which correspond to complete growth inhibition of these fungi. […] The MIC values presented for these five control drugs were either tested herein or correspond to our previously published data^5, 16 as indicated in Table 1.
Antifungal activity in the absence or presence of serum.
It is important to note that all comparisons to follow will be done by using the MIC values reported in μg/mL as the data were collected that way. However, we also present in parentheses in Table 2 the corresponding values in micromolar.
In this manuscript, we performed all activity comparisons by using the MIC values reported in μg/mL (Note: the corresponding MIC values are also provided in μM into parentheses in Tables 1, 2, S1, and S2).

[8] = read-out: MIC (MIC-2), in parentheses
[9] = Ex.2 series, VOR 0.12, 20 0.48, 26 0.975 μg/mL
[10] = Ex.3 series, VOR 0.12, 8 and 9 at sub-MIC […] and 0.975 μg/mL

Question: With C[C@@H](c1ncncc1F)[C@](O)(Cn1cncn1)c1ccc(F)cc1F [VOR, voriconazole] as the compound, how does the “MIC (MIC-2)” value [1] read?
Answer: 1.95^c μg/mL

Question: What about the MIC ([2]; ATCC22019, read-out: MIC, Candida parapsilosis ATCC 22019 (J) (+10% FBS), Table 3, Ex.2 compounds, +10% FBS) of the same compound?
Answer: 0.015 µg/mL

Question: What about the MIC ([2]; ATCC22019, Table 3, Ex.2 compounds, no FBS, read-out: MIC, Candida parapsilosis ATCC 22019 (J) (no FBS)) of the same compound?
Answer: 0.015 µg/mL

Question: And the MIC ([2]; ATCC22019, read-out: MIC (MIC-2))?
Answer: < 0.03 µg/mL

Question: And the MIC ([2]; ATCC22019, read-out: MIC (MIC-2), in parentheses)?
Answer: < 0.06 µM

Question: And the “effect in time-kill assay” value [3]?
Answer: fungistatic

Question: And the MIC ([4]; read-out: MIC (MIC-2))?
Answer: 0.12 µg/mL

Question: And the MIC [4, 8]?
Answer: 0.34 µM

Question: What about the “ergosterol (2), percentage of sterols” value ([5]; Ex.2 series, FLC 1.95, VOR 0.12, 20 0.48, 26 0.975 μg/mL) of the same compound?
Answer: 64.93%

Question: What about the “eburicol (3), percentage of sterols” value [5, 9] of the same compound?
Answer: 2.14%

Question: And the “lanosterol (1), percentage of sterols” value [5, 9]?
Answer: 18.49%

Question: And the “eburicol (3), percentage of sterols” value [5, 10]?
Answer: 1.73%

Question: What about the “ergosterol (2), percentage of sterols” value [5, 10] of the same compound?
Answer: 50.80%

Question: What about the “lanosterol (1), percentage of sterols” value [5, 10] of the same compound?
Answer: 15.21%

Question: What about the MIC ([6]; read-out: MIC (MIC-2)) of the same compound?
Answer: 0.975 µg/mL

Question: What about the MIC [6, 8] of the same compound?
Answer: 2.8 µM

Question: And the MIC ([7]; read-out: MIC (MIC-2))?
Answer: 1.95 µg/mL

Question: And the MIC [7, 8]?
Answer: 5.6 µM

— US12103916B2, “Antifungal compounds” (University of Kentucky Research Foundation, priority 2016, dated 2024)
